Test results reported in patent US10968232B2 (Merck Sharp & Dohme Corp., priority 2016, dated 2021).
pEC50: −log10 of the molar value.

Biological target: T1, human GPR40 (Homo sapiens, UniProt O14842)
T1 construct: expressed in transfected cells
Test: Inositol Phosphate Turnover (IP1) Assay
Format: cell-based
Conditions: HEK cells stably expressing human GPR40; CisBio IP-One kit; 60 minutes at 37 degrees; read-out: Human IP1 EC50
Summary of the method: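 HEK cells stably expressing GPR40, plated 16 h, then exposed to compound in stimulation buffer for 60 min at 37 °C. IP1 accumulation read by HTRF IP-One detection after 60 min at RT.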

T1 sequence (O14842 whole entry): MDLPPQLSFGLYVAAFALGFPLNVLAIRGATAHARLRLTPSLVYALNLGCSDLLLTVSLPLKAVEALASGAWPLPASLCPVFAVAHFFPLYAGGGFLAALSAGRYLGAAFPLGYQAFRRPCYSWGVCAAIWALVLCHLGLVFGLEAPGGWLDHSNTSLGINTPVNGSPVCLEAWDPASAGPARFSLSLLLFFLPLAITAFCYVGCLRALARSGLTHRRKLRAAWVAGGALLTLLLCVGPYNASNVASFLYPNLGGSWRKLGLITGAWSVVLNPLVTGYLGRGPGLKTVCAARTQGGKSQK

Compound | pEC50
C[C@H](C(=O)O)[C@H](c1ccc2c(c1)OC1(CCCN([C@H](C)c3cc(C(F)(F)F)ccc3C(F)(F)F)C1)CC2)C1CC1 (single isomer, unassigned) [Example 74, (2S,3R)-3-((S or R)-1′-((R)-1-(2,5-bis (trifluoromethyl)phenyl)-ethyl)spiro[chroman-2,3′-piperidin]-7-yl)-3-cyclopropyl-2-methylpropanoic acid] | 7.74
C[C@H](C(=O)O)[C@H](c1ccc2c(c1)OC1(CC2)CCN(c2cncc(C(F)(F)F)c2)CC1)C1CC1 [Example 39, (2S,3R)-3-cyclopropyl-2-methyl-3-(1′-(5-(trifluoromethyl)pyridin-3-yl)Spiro [chroman-2,4′-piperidin]-7-yl)propanoic Acid] | 6.25
COc1ncc(C(F)(F)F)cc1C(C)N1CCC2(CCc3ccc([C@H](C4CC4)[C@H](C)C(=O)O)cc3O2)CC1 (single isomer, unassigned) [Example 103, (2S,3R)-3-cyclopropyl-3-(1′-((S or R)-1-(2-methoxy-5-(trifluoro-methyl)pyridin-3-yl)ethyl)spiro[chroman-2,4′-piperidin]-7-yl)-2-methylpropanoic acid] | 6.85
Cc1ccc(OC(F)(F)F)c(C(C)N2CCC3(CCc4ccc([C@H](C5CC5)[C@H](C)C(=O)O)cc4O3)CC2)c1 (mixture of isomers) [Example 112] | 7.67
CC[C@@H](c1cc(C(F)(F)F)ccc1C(F)(F)F)N1CCC2(CCc3ccc([C@H](C4CC4)[C@H](C)C(=O)O)cc3O2)CC1 [Example 7, sodium (2S,3R)-3-(1′-((S)-1-(2,5-bis(trifluoro-methyl)phenyl)propyl)-spiro[chroman-2,4′-piperidin]-7-yl)-3-cyclo-propyl-2-methyl-propanoic acid] | 8.67
C[C@H](C(=O)O)[C@H](c1ccc2c(c1)OC1(CC2)CCN(S(=O)(=O)c2cc(C(F)(F)F)ccc2Cl)CC1)C1CC1 [Example 25, (2S,3R)-3-(1′-((2-chloro-5-(trifluoromethyl)phenyl)sulfonyl)spiro[chroman-2,4′-piperidin]-7-yl)-3-cyclopropyl-2-methylpropanoic Acid] | 7.74
C[C@H](C(=O)O)[C@H](c1ccc2c(c1)OC1(CC2)CCC(Nc2ncccc2C(F)(F)F)CC1)C1CC1 (single isomer, unassigned) [Example 65] | 7.55
C[C@H](C(=O)O)[C@H](c1ccc2c(c1)OC1(CC2)CCN(Cc2cc(C3CC3)ccc2OC(F)(F)F)CC1)C1CC1 [Example 76, (2S,3R)-3-cyclopropyl-3-(1′-(5-cyclopropyl-2-(trifluoromethoxy)benzyl)spiro[chroman-2,4′-piperidin]-7-yl)-2-methylpropanoic Acid] | 7.93
CC(c1cc(C#N)ccc1OC(F)(F)F)N1CCC2(CCc3ccc([C@H](C4CC4)[C@H](C)C(=O)O)cc3O2)CC1 (stereo partly drawn) [Example 123, (2S,3R)-3-(1′-(1-(5-cyano-2-(trifluoromethoxy)phenyl)ethyl)spiro[chroman-2,4′-piperidin]-7-yl)-3-cyclopropyl-2-methylpropanoic Acid] | 7.52
CC(c1cc(C(F)(F)F)cc(C(F)(F)F)c1)N1CCC2(CCc3ccc([C@H](C4CC4)[C@H](C)C(=O)O)cc3O2)CC1 (stereo partly drawn) [Example 54, (2S,3R)-3-(1′-(1-(3,5-bis(trifluoromethyl)phenyl)ethyl)spiro[chroman-2,4′-piperidin]-7-yl)-3-cyclopropyl-2-methylpropanoic Acid] | 8.19
C[C@H](C(=O)O)[C@H](c1ccc2c(c1)OC1(CC2)CC(N[C@H](C)c2cc(C(F)(F)F)ccc2C(F)(F)F)C1)C1CC1 (stereo partly drawn) [Example 93, (2S,3R)-3-(3′-(((R)-1-(2,5-bis(trifluoro-methyl)phenyl)ethyl)a-mino)spiro[chroman-2,1′-cyclo-butan]-7-yl)-3-cyclopropyl-2-methylpropanic acid] | 8.24
C[C@H](C(=O)O)[C@H](c1ccc2c(c1)OC1(CC2)[C@@H]2CC[C@H]1CN([C@@H](C)c1cc(C(F)(F)F)ccc1C(F)(F)F)C2)C1CC1 (stereo partly drawn) [Example 86, (2S,3R)-3-((1R,5S)-3-((S)-1-(2,5-bis(trifluoro-methyl)phenyl)ethyl)-3-azaspiro[bicyclo[3.2.1]oc-tane-8,2′-chroman]-7′-yl)-3-cyclopropyl-2-methylpropanic acid] | 7.33
C[C@H](C(=O)O)[C@H](c1ccc2c(c1)OC1(CC2)CC2(CN([C@H](C)c3cc(C(F)(F)F)ccc3C(F)(F)F)C2)C1)C1CC1 [Example 126, (2S,3R)-3-cyclopropyl-3-(2,2-(R)-2-(1-(2,5-bis(trifluoromethyl)phenyl)ethyl)-2-azaspiro[3.3]heptane-chroman-7-yl)-2-methylpropanoic Acid] | 8.07
C[C@H](C(=O)O)[C@H](c1ccc2c(c1)OC1(CC2)CCN(c2ccnc(C(F)(F)F)c2)CC1)C1CC1 [Example 40, (2S,3R)-3-cyclopropyl-2-methyl-3-(1′-(2-(trifluoromethyl)pyridin-4-yl)spiro-[chroman-2,4′-piperidin]-7-yl)propanoic Acid] | 6.78
C[C@H](C(=O)O)[C@H](c1ccc2c(c1F)OC1(CC2)CCN(Cc2cc(Cl)ccc2OC(F)F)CC1)C1CC1 [Example 20, (2S,3R)-3-(1′-(5-chloro-2-(difluoromethoxy)benzyl)-8-fluorospiro[chroman-2,4′-piperidin]-7-yl)-3-cyclopropyl-2-methylpropanoic Acid] | 7.87
CC(c1cc(Cl)ccc1C(F)(F)F)N1CCC2(CCc3ccc([C@H](C4CC4)[C@H](C)C(=O)O)cc3O2)CC1 (mixture of isomers) [Example 5, (2S3R)-3-(1′-((RS)-1-(5-chloro-2-(trifluoromethyl)phenyl)ethyl)spiro[chroman-2,4′-piperidin]-7-yl)-3-cyclopropyl-2-methylpropanoic Acid] | 8.57
C[C@H](C(=O)O)[C@H](c1ccc2c(c1)OC1(CC2)CCN(c2ccc3nc(C(F)(F)F)cn3n2)CC1)C1CC1 [Example 71, (2S,3R)-3-cyclopropyl-2-methyl-3-(1′-(2-(trifluoromethyl)imidazo[1,2-b]-pyridazin-6-yl)spiro[chroman-2,4′-piperidin]-7-yl)propanoic Acid] | 6.26
C[C@H](C(=O)O)[C@H](c1ccc2c(c1)OC1(CC2)CC(N(C)c2ncccc2C(F)(F)F)C1)C1CC1 (stereo partly drawn) [Example 90, (2S,3R)-3-cyclo-propyl-2-methyl-3-(3′-(methyl(3-(trifluoro-methyl)pyridin-2-yl)amino)spiro[chro-man-2,1′-cyclobutan]-7-yl)propanoic acid] | 8.14
COc1ncc(C(F)(F)F)cc1C(C)N1CCC2(CCc3ccc([C@H](C4CC4)[C@H](C)C(=O)O)cc3O2)CC1 (single isomer, unassigned) [Example 102, (2S,3R)-3-cyclopropyl-3-(1′-((R or S)-1-(2-methoxy-5-(trifluoromethyl)pyridin-3-yl)ethyl)spiro-[chroman-2,4′-piperidin]-7-yl)-2-methylpropanoic Acid] | 6.00
CC(c1cc(Cl)ccc1OC(F)F)N1CCC2(CCc3ccc([C@H](C4CC4)[C@H](C)C(=O)O)c(F)c3O2)CC1 (single isomer, unassigned) [Example 34, (2S,3R)-3-(1′-((S or R)-1-(5-chloro-2-(difluoro-methoxy)phenyl)ethyl)-8-fluorospiro-[chroman-2,4′-piperidin]-7-yl)-3-cyclopropyl-2-methylpropanoic acid] | 8.05
C[C@H](C(=O)O)[C@H](c1ccc2c(c1)OC1(CC2)CCN(c2cccnc2C(F)(F)F)CC1)C1CC1 [Example 22, sodium (2S,3R)-3-cyclopropyl-2-methyl-3-(1′-(2-(trifluoromethyl)pyridin-3-yl)spiro[chroman-2,4′-piperidin]-7-yl)propanoate] | 7.42
C[C@H](C(=O)O)[C@H](c1ccc2c(c1)OC1(CC2)CCN(S(=O)(=O)c2cc(Cl)ccc2Cl)CC1)C1CC1 [Example 46, (2S,3R)-3-cyclopropyl-3-(1′-((2,5-dichloro-phenyl)sulfonyl)spiro [chroman-2,4′-piperidin]-7-yl)-2-methyl-propanoic acid] | 7.64
C[C@H](C(=O)O)[C@H](c1ccc2c(c1)OC1(CC2)CCN(S(=O)(=O)c2ccc(Cl)cc2Cl)CC1)C1CC1 [Example 45] | 6.83
C[C@H](C(=O)O)[C@H](c1ccc2c(c1)OC1(CC2)CCN(Cc2cc(C(F)(F)F)ccc2F)CC1)C1CC1 [Example 27, (2S,3R)-3-cyclopropyl-3-(1′-(2-fluoro-5-(trifluoromethyl)benzyl)spiro-[chroman-2,4′-piperidin]-7-yl)-2-methylpropanoic Acid] | 7.31
C[C@H](C(=O)O)[C@H](c1ccc2c(c1)OC1(CCCN(Cc3cc(C(F)(F)F)ccc3C(F)(F)F)CC1)CC2)C1CC1 (single isomer, unassigned) [Example 48, sodium (2S,3R)-3-((R or S)-1-(2,5-bis (trifluoromethyl)benzyl)spiro[azepane-4,2′-chroman]-7′-yl)-3-cyclopropyl-2-methyl-propanoate] | 8.97
C[C@H](C(=O)O)[C@H](c1ccc2c(c1)OC1(CC2)CCN(Cc2cc(C#N)ccc2C(F)(F)F)CC1)C1CC1 [Example 60, (2S,3R)-3-(1′-(5-cyano-2-(trifluoromethyl)benzyl)spiro[chroman-2,4′-piperidin]-7-yl)-3-cyclopropyl-2-methylpropanoic Acid] | 7.76
CC(c1cc(F)cc(F)c1Cl)N1CCC2(CCc3ccc([C@H](C4CC4)[C@H](C)C(=O)O)c(F)c3O2)CC1 (single isomer, unassigned) [Example 17, (2S,3R)-3-(1′-((S or R)-1-(2-chloro-3,5-difluorophenyl)ethyl)-8-fluorospiro-[chroman-2,4′-piperidin]-7-yl)-3-cyclopropyl-2-methylpropanoic Acid] | 7.43
CC(c1cc(Cl)ccc1OCC(F)(F)F)N1CCC2(CCc3ccc([C@H](C4CC4)[C@H](C)C(=O)O)cc3O2)CC1 (single isomer, unassigned) [Example 62, (2S,3R)-3-(1′-((R or S)-1-(5-chloro-2-(2,2,2-trifluoroethoxy)phenyl)ethyl)spiro [chroman-2,4′-piperidin]-7-yl)-3-cyclopropyl-2-methylpropanoic Acid] | 6.41
